We go through one compound from patent US20240189264A1 (priority 2024, published 2024).

Molecules are shown by their SMILES.

For `CC(C)NCC(O)COc1ccc(CC(N)=O)cc1` (centres unmarked) [Atenolol], for the setting “patients taking atenolol single dose”, the “C-reactive protein (CRP) level (in words)” value was “significantly high”. Besides, under “single dose of 100 mg atenolol, oral administration”, the “response of hypertensive patients to atenolol” value is reported as “mostly respond”.
